Measured values as given in patent US12365672B2, “Compounds and their use for the treatment of alpha1-antitrypsin deficiency” (CENTESSA PHARMACEUTICALS (UK) LIMITED, priority 2019, dated 2025).

Target: T1, human Z A1AT (Homo sapiens, UniProt P01009, E366K)
T1 construct: expressed in transfected cells; host or cells: HEK-Z cells (human embryonic kidney cell line)
Assay: A1AT cell secretion assay using HEK-Z cells (ELISA of supernatant)
Format: cell-based
Settings: 48 h, A1AT in supernatant by ELISA
Experimental: HEK-Z cells, a human embryonic kidney cell line stably transfected with the human Z A1AT gene, were plated into 96 well plates (3.0×10^5 cells/ml with 200 μl of media/well) overnight at 37° C. in a humidified atmosphere containing 5% CO2. Following incubation cells were washed with 200 μl serum-free media three times and media was replaced with treatments in quadruplicate using serum free media containing either vehicle, 10 μM suberanilohydroxamic acid (SAHA) or a compound of the invention (at concentrations of 10, 33, 100 and 333 nM) for 48 h in a 37° C. incubator in a final volume of 200 μl. At the end of the incubation step the supernatants were removed from the wells, centrifuged at 1000×g at 4° C. for 10 min and were assayed for human A1AT levels by ELISA (Human Serpin A1/α1-antitrypsin duo set ELISA, R& D Systems, DY1268) per manufacturer's instructions.
Briefly, a 96 well plate was coated with human A1AT capture antibody overnight at room temperature (1:180 dilution from stock, 100 μl final volume/well). The capture antibody was then removed and wells washed three times with 300 μl wash buffer (0.05% Tween 20 in PBS) and then 200 μl reagent diluent ([…]) was incubated in each well for 1 h at room temperature. Diluted samples, standards (125, 250, 500, 1000, 2000, 4000 and 8000 pg/ml A1AT) or blanks were then added to each well in duplicate and the plates were covered with a plate sealer and left at room temperature for 2 h. At the end of the sample incubation step, samples were removed and all wells washed as previously and 100 μl detection antibody (1:180 dilution from stock) was added to each well and incubated for a further 2 h at room temperature. […] After which, 50 μl stop solution (2M H2SO4) was added and optical density (OD) of each well was read at 450 nm with 570 nm blank subtracted from each well using a microplate reader. A 4 parameter logistic curve was constructed using GraphPad Prism 7 and A1AT concentrations were determined in each sample by interpolation from a standard curve and multiplying by the appropriate dilution factor.

T1 sequence (P01009 25-418 E366K): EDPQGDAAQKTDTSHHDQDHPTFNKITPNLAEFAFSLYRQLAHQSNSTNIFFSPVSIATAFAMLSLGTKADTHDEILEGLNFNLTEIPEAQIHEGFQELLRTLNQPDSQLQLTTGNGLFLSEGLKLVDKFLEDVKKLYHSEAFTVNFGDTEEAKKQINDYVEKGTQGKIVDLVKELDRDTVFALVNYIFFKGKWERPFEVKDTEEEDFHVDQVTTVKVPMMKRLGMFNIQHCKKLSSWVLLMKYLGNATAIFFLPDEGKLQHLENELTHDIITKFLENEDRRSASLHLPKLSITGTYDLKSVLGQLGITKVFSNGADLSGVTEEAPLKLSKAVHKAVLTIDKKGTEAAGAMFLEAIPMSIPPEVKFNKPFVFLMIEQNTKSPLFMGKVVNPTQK

In order of falling “Median A1AT % increase over vehicle at 300 nM” value:
1. O=c1ccncn1Cc1ccc(-c2ncco2)cc1 [Example 1, 3-(4-(oxazol-2-yl)benzyl)pyrimidin-4(3H)-one]  180%
2. O=c1cc[nH]c(=O)n1Cc1ccc(-c2ncco2)cc1 [Example 3, 3-(4-(oxazol-2-yl)benzyl)pyrimidine-2,4(1H,3H)-dione]  180%
3. O=c1c2ccccc2ncn1Cc1ccc(-c2ncco2)cc1 [Example 2, 3-(4-(oxazol-2-yl)benzyl)quinazolin-4(3H)-one]  140%
